In the assay the test system is MV-4-11 cells. As to the kind of experiment: Gene expression microarray analysis (Affymetrix PrimeView) and GSEA. Format: cell-based, human. Further details: RFU PODN (11730768_x_at) / Fold change /veh PODN (11730768_x_at) / RFU LINC00158 (11744669_a_at) / Fold change /veh LINC00158 (11744669_a_at) / RFU DUSP10 (11751237_a_at) / Fold change /veh DUSP10 (11751237_a_at) / RFU ID3 (11757404_x_at) / Fold change /veh ID3 (11757404_x_at) / RFU PLEKHG5 (11737974_s_at) / Fold change /veh PLEKHG5 (11737974_s_at) / RFU LRRC4B (11730491_at) / Fold change /veh LRRC4B (11730491_at) / RFU GIMAP4 (11747438_a_at) / Fold change /veh GIMAP4 (11747438_a_at) / RFU KRT8 (11758183_x_at) / Fold change /veh KRT8 (11758183_x_at) / RFU CNN1 (11734310_a_at) / Fold change /veh CNN1 (11734310_a_at) / RFU VPS37D (11726825_at) / Fold change /veh VPS37D (11726825_at) / RFU C10orf10 (11716522_x_at) / Fold change /veh C10orf10 (11716522_x_at) / RFU KIR2DL2 /// KIR2DL4 /// KIR2DL5A /// KIR2DL5B /// KIR2DS1 /// KIR2DS2 /// KIR2DS3 /// KIR2DS4 /// KIR3DL3 /// KIR3DL3 /// KIR3DS1 (11738374_at) / Fold change /veh KIR2DL2 /// KIR2DL4 /// KIR2DL5A /// KIR2DL5B /// KIR2DS1 /// KIR2DS2 /// KIR2DS3 /// KIR2DS4 /// KIR3DL3 /// KIR3DL3 /// KIR3DS1 (11738374_at) / RFU C1QL1 (11718748_at) / Fold change /veh C1QL1 (11718748_at) / RFU TMPRSS4 (11747572_a_at) / Fold change /veh TMPRSS4 (11747572_a_at) / RFU HAMP (11756126_x_at) / Fold change /veh HAMP (11756126_x_at) / RFU RNFT2 (11725882_a_at) / Fold change /veh RNFT2 (11725882_a_at) / RFU NR4A2 (11747474_a_at) / Fold change /veh NR4A2 (11747474_a_at) / RFU ABCC12 (11746883_a_at) / Fold change /veh ABCC12 (11746883_a_at) / RFU TMEM136 (11760407_x_at) / Fold change /veh TMEM136 (11760407_x_at) / RFU CLDN22 /// WWC2 (11732394_at) / Fold change /veh CLDN22 /// WWC2 (11732394_at) / RFU HLA-DPB1 (11760878_x_at) / Fold change /veh HLA-DPB1 (11760878_x_at) / RFU SPINT1 (11716480_a_at) / Fold change /veh SPINT1 (11716480_a_at) / RFU GAP43 (11754022_s_at) / Fold change /veh GAP43 (11754022_s_at) / RFU A4GNT (11735810_at) / Fold change /veh A4GNT (11735810_at) / RFU PRB3 (11715151_x_at) / Fold change /veh PRB3 (11715151_x_at) / RFU TUBB4B (11761932_at) / Fold change /veh TUBB4B (11761932_at) / RFU CAPN14 (11732068_a_at) / Fold change /veh CAPN14 (11732068_a_at) / RFU TMCC2 (11721928_a_at) / Fold change /veh TMCC2 (11721928_a_at) / RFU IRGQ (11745062_a_at) / Fold change /veh IRGQ (11745062_a_at) / RFU FAM174B (11720279_a_at) / Fold change /veh FAM174B (11720279_a_at) / RFU TMPRSS4 (11748680_a_at) / Fold change /veh TMPRSS4 (11748680_a_at) / RFU FAM212B (11763350_a_at) / Fold change /veh FAM212B (11763350_a_at) / RFU PLEKHG5 (11743358_a_at) / Fold change /veh PLEKHG5 (11743358_a_at) / RFU ZSCAN30 (11745921_a_at) / Fold change /veh ZSCAN30 (11745921_a_at) / RFU CMKLR1 (11741424_a_at) / Fold change /veh CMKLR1 (11741424_a_at) / RFU LOC101060620 /// MAPK8IP1 (11723275_at) / Fold change /veh LOC101060620 /// MAPK8IP1 (11723275_at) / RFU SPTSSB (11747773_x_at) / Fold change /veh SPTSSB (11747773_x_at) / RFU PRSS12 (11739890_at) / Fold change /veh PRSS12 (11739890_at) / RFU BIN1 (11741810_x_at) / Fold change /veh BIN1 (11741810_x_at) / RFU WNT11 (11732464_a_at) / Fold change /veh WNT11 (11732464_a_at) / RFU C10orf10 (11716521_a_at) / Fold change /veh C10orf10 (11716521_a_at) / RFU C5orf56 (11738089_at) / Fold change /veh C5orf56 (11738089_at) / RFU CYB561 (11721691_x_at) / Fold change /veh CYB561 (11721691_x_at) / RFU ANKRD19P (11752326_a_at) / Fold change /veh ANKRD19P (11752326_a_at) / RFU OR2T12 /// OR2T33 /// OR2T8 (11738714_s_at) / Fold change /veh OR2T12 /// OR2T33 /// OR2T8 (11738714_s_at) / RFU VCAN (11748164_a_at) / Fold change /veh VCAN (11748164_a_at) / RFU JSRP1 (11732532_at) / Fold change /veh JSRP1 (11732532_at) / RFU KRTAP10-11 (11738290_x_at) / Fold change /veh KRTAP10-11 (11738290_x_at) / RFU MYO3A (11730013_a_at) / Fold change /veh MYO3A (11730013_a_at) / RFU EBF3 (11725865_a_at) / Fold change /veh EBF3 (11725865_a_at) / RFU CAMK2N1 (11719241_x_at) / Fold change /veh CAMK2N1 (11719241_x_at) / RFU C5orf56 (11738088_a_at) / Fold change /veh C5orf56 (11738088_a_at) / RFU OLFML3 (11715873_a_at) / Fold change /veh OLFML3 (11715873_a_at) / RFU LOC100653217 /// NTM (11731650_a_at) / Fold change /veh LOC100653217 /// NTM (11731650_a_at) / RFU MAPK11 (11762145_a_at) / Fold change /veh MAPK11 (11762145_a_at) / RFU FIZ1 (11724087_x_at) / Fold change /veh FIZ1 (11724087_x_at) / RFU OASL (11726364_x_at) / Fold change /veh OASL (11726364_x_at) / RFU SOX15 (11748057_x_at) / Fold change /veh SOX15 (11748057_x_at) / RFU CD79A (11719716_a_at) / Fold change /veh CD79A (11719716_a_at) / RFU HIST1H1D (11736915_at) / Fold change /veh HIST1H1D (11736915_at) / RFU CASKIN2 (11723855_a_at) / Fold change /veh CASKIN2 (11723855_a_at) / RFU LOC730098 (11760151_x_at) / Fold change /veh LOC730098 (11760151_x_at) / RFU OR4N2 (11742367_at) / Fold change /veh OR4N2 (11742367_at) / RFU PRRT2 (11749266_a_at) / Fold change /veh PRRT2 (11749266_a_at) / RFU SNX32 (11753110_a_at) / Fold change /veh SNX32 (11753110_a_at) / RFU CDHR5 (11726645_a_at) / Fold change /veh CDHR5 (11726645_a_at) / RFU RCAN1 (11760418_a_at) / Fold change /veh RCAN1 (11760418_a_at) / RFU FAM167A (11723789_a_at) / Fold change /veh FAM167A (11723789_a_at) / RFU FAM26E (11764081_at) / Fold change /veh FAM26E (11764081_at) / RFU ISYNA1 (11749810_s_at) / Fold change /veh ISYNA1 (11749810_s_at) / RFU ACY1 (11761880_at) / Fold change /veh ACY1 (11761880_at) / RFU 11764098_at / Fold change /veh 11764098_at / RFU SAMD14 (11745864_x_at) / Fold change /veh SAMD14 (11745864_x_at) / RFU NPB (11741838_a_at) / Fold change /veh NPB (11741838_a_at) / RFU TMPRSS6 (11731388_a_at) / Fold change /veh TMPRSS6 (11731388_a_at) / RFU KRTAP10-2 (11738614_at) / Fold change /veh KRTAP10-2 (11738614_at) / RFU ARHGAP8 /// PRR5-ARHGAP8 (11727945_x_at) / Fold change /veh ARHGAP8 /// PRR5-ARHGAP8 (11727945_x_at) / RFU KRTAP5-7 /// NADSYN1 (11734609_at) / Fold change /veh KRTAP5-7 /// NADSYN1 (11734609_at) / RFU RASL12 (11751679_a_at) / Fold change /veh RASL12 (11751679_a_at) / RFU CDKN2B (11736163_a_at) / Fold change /veh CDKN2B (11736163_a_at) / RFU PRF1 (11729649_at) / Fold change /veh PRF1 (11729649_at) / RFU, ZNF638 /// ZNF638-IT1 / Fold change vs veh, ZNF638 /// ZNF638-IT1 / RFU, PANK3 / Fold change vs veh, PANK3 / RFU, SH3YL1 / Fold change vs veh, SH3YL1 / RFU, ZEB2 / Fold change vs veh, ZEB2 / RFU, NRIP1 / Fold change vs veh, NRIP1 / RFU, PTTG1IP / Fold change vs veh, PTTG1IP / RFU, CAPN2 / Fold change vs veh, CAPN2 / RFU, MED14 / Fold change vs veh, MED14 / RFU, SNORA58 / Fold change vs veh, SNORA58 / RFU, C1orf63 / Fold change vs veh, C1orf63 / RFU, LRRFIP1 / Fold change vs veh, LRRFIP1 / RFU, NDUFAF7 / Fold change vs veh, NDUFAF7 / RFU, SLC12A2 / Fold change vs veh, SLC12A2 / RFU, IBTK / Fold change vs veh, IBTK / RFU, ESF1 / Fold change vs veh, ESF1 / Fold change vs veh, TMEM50B / RFU, TAOK1 / Fold change vs veh, TAOK1 / RFU, ACBD3 / Fold change vs veh, ACBD3 / RFU, TMA16 / Fold change vs veh, TMA16 / RFU, RWDD3 / Fold change vs veh, RWDD3 / RFU, BCAT1 / Fold change vs veh, BCAT1 / RFU, EDEM3 / Fold change vs veh, EDEM3 / RFU, TMEM33 / Fold change vs veh, TMEM33 / RFU, WDR75 / Fold change vs veh, WDR75 / RFU, AHCTF1 / Fold change vs veh, AHCTF1 / RFU, TFRC / Fold change vs veh, TFRC / RFU, ZDHHC17 / Fold change vs veh, ZDHHC17 / RFU, NOM1 / Fold change vs veh, NOM1 / RFU, ARL8B / Fold change vs veh, ARL8B / RFU, ZBTB11 / Fold change vs veh, ZBTB11 / RFU, TAMM41 / Fold change vs veh, TAMM41 / RFU, KIAA1704 /// LOC100996395 / Fold change vs veh, KIAA1704 /// LOC100996395 / RFU, ING1 / Fold change vs veh, ING1 / RFU, TRMT61B / Fold change vs veh, TRMT61B / RFU, FUBP3 / Fold change vs veh, FUBP3 / RFU, TP53 / Fold change vs veh, TP53 / RFU, TNKS2 / Fold change vs veh, TNKS2 / RFU, ZFP14 / Fold change vs veh, ZFP14 / RFU, ACTR2 / Fold change vs veh, ACTR2 / RFU, PPP3R1 / Fold change vs veh, PPP3R1 / RFU, PIK3R1 / Fold change vs veh, PIK3R1 / RFU, HNRNPA1 / Fold change vs veh, HNRNPA1 / RFU, RNF170 / Fold change vs veh, RNF170 / RFU, ZNF28 / Fold change vs veh, ZNF28 / RFU, RNGTT / Fold change vs veh, RNGTT / RFU, OGT / Fold change vs veh, OGT / RFU, BRD1 / Fold change vs veh, BRD1 / RFU, MARS / Fold change vs veh, MARS / RFU, ZNF655 / Fold change vs veh, ZNF655 / RFU, FAHD1 / Fold change vs veh, FAHD1 / RFU, BDP1 / Fold change vs veh, BDP1 / RFU, LRRCC1 / Fold change vs veh, LRRCC1 / RFU, ARID1A / Fold change vs veh, ARID1A / RFU, ZNF146 / Fold change vs veh, ZNF146 / RFU, ZNF330 / Fold change vs veh, ZNF330 / RFU, GPN3 / Fold change vs veh, GPN3 / RFU, C9orf123 / Fold change vs veh, C9orf123 / RFU, N4BP2L2 / Fold change vs veh, N4BP2L2 / RFU, ARFIP1 / Fold change vs veh, ARFIP1 / RFU, FAM179B / Fold change vs veh, FAM179B / RFU, BCL10 / Fold change vs veh, BCL10 / RFU, UHRF1BP1L / Fold change vs veh, UHRF1BP1L / RFU, BET1 / Fold change vs veh, BET1 / RFU, CNOT2 / Fold change vs veh, CNOT2 / RFU, ZNF268 / Fold change vs veh, ZNF268 / Fold change vs veh, ZNF507 / RFU, DGCR2 / Fold change vs veh, DGCR2 / RFU, WDSUB1 / Fold change vs veh, WDSUB1 / Fold change vs veh, HSP90B1 /// MIR3652 / RFU, ADSS / Fold change vs veh, ADSS / RFU, GK / Fold change vs veh, GK / RFU, ZNF148 / Fold change vs veh, ZNF148 / RFU, TAF9 / Fold change vs veh, TAF9 / RFU, SLC1A5 / Fold change vs veh, SLC1A5 / RFU, SLMO2 / Fold change vs veh, SLMO2 / RFU, ABCC4 / Fold change vs veh, ABCC4 / RFU, LOC101060439 /// RAP1B / Fold change vs veh, LOC101060439 /// RAP1B / RFU, RFX7 / Fold change vs veh, RFX7 / RFU, GTPBP10 / Fold change vs veh, GTPBP10 / RFU, CNEP1R1 / Fold change vs veh, CNEP1R1 / RFU, BIVM-ERCC5 /// ERCC5 / Fold change vs veh, BIVM-ERCC5 /// ERCC5 / RFU, ILF3 / Fold change vs veh, ILF3 / RFU 11762660_at / Fold change /veh 11762660_at / RFU VCAN (11757783_s_at) / Fold change /veh VCAN (11757783_s_at) / RFU DDX43 (11728927_at) / Fold change /veh DDX43 (11728927_at) / RFU KRT8 (11758188_x_at) / Fold change /veh KRT8 (11758188_x_at) / RFU NKD1 (11759106_at) / Fold change /veh NKD1 (11759106_at) / RFU SRD5A1 (11742802_a_at) / Fold change /veh SRD5A1 (11742802_a_at) / RFU TPSAB1 /// TPSB2 (11721975_s_at) / Fold change /veh TPSAB1 /// TPSB2 (11721975_s_at) / RFU GSTM3 (11746129_a_at) / Fold change /veh GSTM3 (11746129_a_at) / RFU IL23R (11737362_x_at) / Fold change /veh IL23R (11737362_x_at) / RFU TMEM51 (11727254_a_at) / Fold change /veh TMEM51 (11727254_a_at) / RFU PIWIL2 (11732686_x_at) / Fold change /veh PIWIL2 (11732686_x_at) / RFU ORM1 (11744905_x_at) / Fold change /veh ORM1 (11744905_x_at) / RFU CCDC152 (11743942_at) / Fold change /veh CCDC152 (11743942_at) / RFU ECM1 (11717891_a_at) / Fold change /veh ECM1 (11717891_a_at) / RFU IL23R (11748794_a_at) / Fold change /veh IL23R (11748794_a_at) / RFU TNFAIP8L3 (11732012_x_at) / Fold change /veh TNFAIP8L3 (11732012_x_at) / RFU MBOAT4 (11741988_at) / Fold change /veh MBOAT4 (11741988_at) / RFU 11764193_at / Fold change /veh 11764193_at / RFU TMEM53 (11763286_at) / Fold change /veh TMEM53 (11763286_at) / RFU MAGEB2 (11727129_at) / Fold change /veh MAGEB2 (11727129_at) / RFU TMEM200A (11744735_a_at) / Fold change /veh TMEM200A (11744735_a_at) / RFU CCDC152 (11751479_a_at) / Fold change /veh CCDC152 (11751479_a_at) / RFU FAM211A (11726209_a_at) / Fold change /veh FAM211A (11726209_a_at) / RFU RGS16 (11746705_a_at) / Fold change /veh RGS16 (11746705_a_at) / RFU VCAN (11755009_s_at) / Fold change /veh VCAN (11755009_s_at) / RFU RHOB (11743442_s_at) / Fold change /veh RHOB (11743442_s_at) / RFU RGS16 (11720943_a_at) / Fold change /veh RGS16 (11720943_a_at) / RFU RGS16 (11720944_at) / Fold change /veh RGS16 (11720944_at) / RFU, VPS4B / Fold change vs veh, VPS4B / RFU, CREB1 / Fold change vs veh, CREB1 / RFU, DNAJC13 / Fold change vs veh, DNAJC13 / RFU, GNAQ / Fold change vs veh, GNAQ / RFU, CDK5R1 / Fold change vs veh, CDK5R1 / RFU, ZRANB3 / Fold change vs veh, ZRANB3 / RFU, CUL4A / Fold change vs veh, CUL4A / RFU, CCNY / Fold change vs veh, CCNY / RFU, UFL1 / Fold change vs veh, UFL1 / RFU, COG3 / Fold change vs veh, COG3 / RFU, DIAPH2 / Fold change vs veh, DIAPH2 / RFU, SKA2 / Fold change vs veh, SKA2 / RFU, AFF3 / Fold change vs veh, AFF3 / RFU, LMF1 / Fold change vs veh, LMF1 / RFU, IPO11 / Fold change vs veh, IPO11 / RFU, DFFB / Fold change vs veh, DFFB / RFU, FOXP1 / Fold change vs veh, FOXP1 / RFU, CARD8 / Fold change vs veh, CARD8 / RFU, STRN3 / Fold change vs veh, STRN3 / RFU, ADK / Fold change vs veh, ADK / RFU, RASSF2 / Fold change vs veh, RASSF2 / RFU, WIPF1 / Fold change vs veh, WIPF1 / RFU, LARP1B / Fold change vs veh, LARP1B / RFU, RASA1 / Fold change vs veh, RASA1 / RFU, RB1 / Fold change vs veh, RB1 / RFU, PPFIA1 / Fold change vs veh, PPFIA1 / RFU, MAT2A / Fold change vs veh, MAT2A / RFU, CCT5 / Fold change vs veh, CCT5 / RFU, WDR92 / Fold change vs veh, WDR92 / RFU, CUX1 / Fold change vs veh, CUX1 / RFU, TTC7A / Fold change vs veh, TTC7A / RFU, TMEM135 / Fold change vs veh, TMEM135 / RFU, DEPTOR / Fold change vs veh, DEPTOR / RFU, CPM / Fold change vs veh, CPM / RFU, DNAJB6 / Fold change vs veh, DNAJB6 / RFU, CACNA2D3 / Fold change vs veh, CACNA2D3 / RFU, DTX4 / Fold change vs veh, DTX4 / RFU, TFCP2 / Fold change vs veh, TFCP2 / RFU, GMCL1 /// GMCL1P1 / Fold change vs veh, GMCL1 /// GMCL1P1 / RFU, AEBP2 / Fold change vs veh, AEBP2 / RFU, SNHG1 /// SNORD22 /// SNORD25 /// SNORD26 /// SNORD27 /// SNORD28 /// SNORD29 /// SNORD31 / Fold change vs veh, SNHG1 /// SNORD22 /// SNORD25 /// SNORD26 /// SNORD27 /// SNORD28 /// SNORD29 /// SNORD31 / Fold change (Aza/veh), C12orf56 (ProbeSet 11735607_a_at) / Fold change (ACY-1035/veh), C12orf56 (ProbeSet 11735607_a_at) / Fold change (Aza/veh), FGFR1OP (ProbeSet 11751329_s_at) / Fold change (ACY-1035/veh), FGFR1OP (ProbeSet 11751329_s_at) / Fold change (Aza/veh), VPS36 (ProbeSet 11739960_a_at) / Fold change (ACY-1035/veh), VPS36 (ProbeSet 11739960_a_at) / RFU SYPL1 (11715823_x_at) / Fold change /veh SYPL1 (11715823_x_at) / RFU IGFBP7 (11715501_s_at) / Fold change /veh IGFBP7 (11715501_s_at) / RFU REEP3 (11722064_at) / Fold change /veh REEP3 (11722064_at) / RFU IGLL1 (11728026_x_at) / Fold change /veh IGLL1 (11728026_x_at): dose or concentration left out as unconfirmed. The settings on record: MV-4-11 cells, 48 hours.

Turning to `Nc1ncn([C@@H]2O[C@H](CO)[C@@H](O)[C@H]2O)c(=O)n1` [azacitidine], the “RFU SNX32 (11753110_a_at)” value was determined as 6.16 RFU.

The values are drawn from paper PMC5218480 (PLoS ONE, 2017).
